From ChEMBL document CHEMBL5214943, “Guanidino quinazolines and pyrimidines promote readthrough of premature termination codons in cells with native nonsense mutations” (Bioorg Med Chem Lett, 2022)
Activity calls are given as the source filed them. No cut-off for these calls is given here.

Each compound was assayed against Dystrophin (Mus musculus) (UniProt P11531) (assay: Induction of read through activity at dystrophin in mouse H2K mdx cells assessed as increase in production of full length dystrophin protein at <2 uM by MSD assay). Settings: filed as activator.
Dystrophin (Mus musculus), sequence (P11531 whole entry): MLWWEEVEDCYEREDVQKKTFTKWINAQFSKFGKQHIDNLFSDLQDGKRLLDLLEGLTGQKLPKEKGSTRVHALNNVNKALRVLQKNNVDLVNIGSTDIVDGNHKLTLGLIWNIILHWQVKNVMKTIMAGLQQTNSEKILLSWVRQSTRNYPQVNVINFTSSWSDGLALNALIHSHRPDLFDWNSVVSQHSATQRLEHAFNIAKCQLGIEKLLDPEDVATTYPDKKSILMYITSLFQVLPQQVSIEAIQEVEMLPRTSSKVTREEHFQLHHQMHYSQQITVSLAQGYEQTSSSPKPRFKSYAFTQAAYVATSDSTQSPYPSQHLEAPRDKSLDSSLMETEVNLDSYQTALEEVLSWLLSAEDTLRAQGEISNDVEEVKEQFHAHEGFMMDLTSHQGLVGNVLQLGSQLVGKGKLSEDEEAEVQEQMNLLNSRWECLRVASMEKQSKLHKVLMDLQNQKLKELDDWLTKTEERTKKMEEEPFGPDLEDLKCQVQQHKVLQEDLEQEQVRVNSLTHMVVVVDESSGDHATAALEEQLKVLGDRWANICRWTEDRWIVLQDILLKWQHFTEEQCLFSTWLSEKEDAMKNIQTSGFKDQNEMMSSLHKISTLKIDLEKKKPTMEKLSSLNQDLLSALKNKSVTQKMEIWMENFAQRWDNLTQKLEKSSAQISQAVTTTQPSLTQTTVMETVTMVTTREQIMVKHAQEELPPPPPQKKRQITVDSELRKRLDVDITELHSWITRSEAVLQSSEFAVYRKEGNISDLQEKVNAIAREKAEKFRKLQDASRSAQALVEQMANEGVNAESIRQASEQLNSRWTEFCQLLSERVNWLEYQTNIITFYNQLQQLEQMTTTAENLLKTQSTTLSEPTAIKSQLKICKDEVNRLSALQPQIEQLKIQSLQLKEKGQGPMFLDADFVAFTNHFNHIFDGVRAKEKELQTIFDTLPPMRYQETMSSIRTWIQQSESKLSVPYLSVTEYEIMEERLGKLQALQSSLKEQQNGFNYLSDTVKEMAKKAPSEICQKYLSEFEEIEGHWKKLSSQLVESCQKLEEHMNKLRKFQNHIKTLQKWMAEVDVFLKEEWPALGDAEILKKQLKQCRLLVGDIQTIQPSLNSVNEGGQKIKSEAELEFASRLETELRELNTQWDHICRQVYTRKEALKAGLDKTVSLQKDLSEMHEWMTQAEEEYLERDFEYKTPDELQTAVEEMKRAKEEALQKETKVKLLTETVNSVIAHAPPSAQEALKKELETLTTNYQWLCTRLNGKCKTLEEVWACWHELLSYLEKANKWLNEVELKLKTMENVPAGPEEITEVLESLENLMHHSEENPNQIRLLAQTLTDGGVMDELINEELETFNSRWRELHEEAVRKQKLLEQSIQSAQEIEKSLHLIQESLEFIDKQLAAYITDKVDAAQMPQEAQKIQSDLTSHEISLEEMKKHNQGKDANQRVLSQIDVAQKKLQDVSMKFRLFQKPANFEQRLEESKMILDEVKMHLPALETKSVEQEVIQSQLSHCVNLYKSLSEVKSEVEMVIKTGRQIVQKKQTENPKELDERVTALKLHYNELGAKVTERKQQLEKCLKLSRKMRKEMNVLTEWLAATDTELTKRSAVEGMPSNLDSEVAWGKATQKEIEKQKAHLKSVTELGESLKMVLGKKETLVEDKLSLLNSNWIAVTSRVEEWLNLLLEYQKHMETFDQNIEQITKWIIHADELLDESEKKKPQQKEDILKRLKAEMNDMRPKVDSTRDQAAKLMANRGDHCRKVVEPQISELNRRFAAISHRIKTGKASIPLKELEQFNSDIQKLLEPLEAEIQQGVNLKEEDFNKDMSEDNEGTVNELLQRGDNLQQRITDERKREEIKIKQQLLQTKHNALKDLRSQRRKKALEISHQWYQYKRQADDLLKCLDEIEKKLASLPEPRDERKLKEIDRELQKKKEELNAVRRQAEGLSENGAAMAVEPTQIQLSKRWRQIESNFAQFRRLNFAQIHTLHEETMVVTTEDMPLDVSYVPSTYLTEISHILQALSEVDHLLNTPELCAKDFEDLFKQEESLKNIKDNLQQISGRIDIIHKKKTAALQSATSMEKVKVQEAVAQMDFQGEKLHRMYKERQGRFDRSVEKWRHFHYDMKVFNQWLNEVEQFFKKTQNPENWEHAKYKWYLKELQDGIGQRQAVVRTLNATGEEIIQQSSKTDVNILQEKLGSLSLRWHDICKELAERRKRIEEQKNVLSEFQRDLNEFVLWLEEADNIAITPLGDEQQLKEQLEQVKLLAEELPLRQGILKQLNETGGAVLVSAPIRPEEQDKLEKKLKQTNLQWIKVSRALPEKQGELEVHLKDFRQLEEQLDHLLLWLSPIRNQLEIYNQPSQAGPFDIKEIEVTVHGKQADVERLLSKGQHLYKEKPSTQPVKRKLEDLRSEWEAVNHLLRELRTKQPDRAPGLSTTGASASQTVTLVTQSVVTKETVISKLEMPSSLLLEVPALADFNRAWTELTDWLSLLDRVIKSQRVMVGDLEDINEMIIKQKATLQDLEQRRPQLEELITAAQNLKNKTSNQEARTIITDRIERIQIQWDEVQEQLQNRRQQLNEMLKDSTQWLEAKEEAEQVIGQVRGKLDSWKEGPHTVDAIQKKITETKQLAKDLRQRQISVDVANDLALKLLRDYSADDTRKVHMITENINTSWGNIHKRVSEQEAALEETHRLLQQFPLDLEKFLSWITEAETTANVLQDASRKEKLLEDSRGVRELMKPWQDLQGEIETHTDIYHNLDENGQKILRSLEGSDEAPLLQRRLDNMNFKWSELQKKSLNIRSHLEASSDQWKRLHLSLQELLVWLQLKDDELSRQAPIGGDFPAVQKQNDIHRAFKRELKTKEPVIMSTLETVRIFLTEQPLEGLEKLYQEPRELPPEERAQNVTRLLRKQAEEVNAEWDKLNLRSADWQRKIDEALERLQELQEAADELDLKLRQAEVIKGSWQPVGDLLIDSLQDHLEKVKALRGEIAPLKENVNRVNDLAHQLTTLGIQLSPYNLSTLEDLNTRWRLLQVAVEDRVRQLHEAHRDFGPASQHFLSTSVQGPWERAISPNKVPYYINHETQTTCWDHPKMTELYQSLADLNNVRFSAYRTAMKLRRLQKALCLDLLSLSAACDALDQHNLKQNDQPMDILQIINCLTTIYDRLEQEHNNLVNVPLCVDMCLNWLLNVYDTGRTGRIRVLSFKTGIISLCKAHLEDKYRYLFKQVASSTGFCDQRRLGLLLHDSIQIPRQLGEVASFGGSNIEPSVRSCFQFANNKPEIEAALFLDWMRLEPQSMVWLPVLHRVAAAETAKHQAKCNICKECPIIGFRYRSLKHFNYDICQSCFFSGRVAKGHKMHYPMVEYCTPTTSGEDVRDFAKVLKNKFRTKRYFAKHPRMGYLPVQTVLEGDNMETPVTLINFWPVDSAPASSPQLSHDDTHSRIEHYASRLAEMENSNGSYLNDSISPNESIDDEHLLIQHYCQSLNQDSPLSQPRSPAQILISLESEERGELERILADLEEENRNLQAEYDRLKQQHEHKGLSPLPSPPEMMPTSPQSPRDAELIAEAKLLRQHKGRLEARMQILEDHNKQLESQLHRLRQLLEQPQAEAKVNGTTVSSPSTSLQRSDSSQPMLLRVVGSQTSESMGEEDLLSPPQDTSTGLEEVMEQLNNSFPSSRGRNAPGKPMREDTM
Type: cell-based
N=C(NCCCN1CCCCC1)Nc1nc2c(c(-c3ccoc3)n1)CCC2 was tested, and the Activity was “Active”.

The compounds below were run on Premature termination codon (assay: Induction of read through activity at T-p53 R213X mutant premature termination codon in human HDQ-P1 cells assessed as increase in production of full length p53 protein by MSD assay). Settings: not given.
Type: cell-based
C/N=C(/NCCCN(C)C)Nc1nc(C)c2ccccc2n1 was tested, and the EC2 was greater than 30 µM. In the case of Cc1ccc2c(C)cc(NC(=N)N)nc2c1, the EC2 was greater than 100 µM. With Cc1ccnc(NC(=N)NCCCN(C)C)n1 the EC2 was greater than 30 µM. Cc1nc(NC(=N)NCCCN(C)CC(F)(F)F)nc2ccccc12 showed an EC2 greater than 30 µM. Compound Cc1nc(NC(=N)N)cc2ccccc12 has an EC2 greater than 100 µM. Cc1nc(NC(=N)NCCCN2CCCC2)nc(C)c1-c1ccoc1 gave an EC2 greater than 30 µM. For Cc1nc(NC(=N)Nc2cccc(N(C)C)c2)nc2cc(Cl)ccc12, the EC2 was greater than 30 µM. Cc1nc(NC(=N)N(C)CCCN(C)C)nc2ccccc12 was tested, and the EC2 was greater than 30 µM. In the case of Cc1nc(NC(=N)NCC(F)(F)CN(C)C)nc2ccccc12, the EC2 was greater than 30 µM. Cc1ccc2cnc(NC(=N)N)nc2c1 showed an EC2 greater than 100 µM. Compound Cc1nc(NC(=N)NCCCN(C)CC(=O)O)nc2ccccc12 has an EC2 greater than 30 µM. Compound Cc1nc(N)nc2ccccc12 has an EC2 greater than 100 µM. In the case of Cc1nc(NS(N)(=O)=O)nc2cc(Cl)ccc12, the EC2 was greater than 100 µM. Compound Cc1nc(NC(=N)NCC(=O)O)nc2cc(F)ccc12 has an EC2 greater than 100 µM. In the case of Cc1nc(NC(N)=O)nc2cc(Cl)ccc12, the EC2 was greater than 100 µM.

Same assay, conditions: filed as activator
CCN(CC)CCCNC(=N)Nc1nc(C)c2ccc(F)cc2n1 was tested, and the EC2 was 2.2 µM. Compound Cc1cccc2nc(NC(=N)NC3CCN(C)CC3)nc(C)c12 has an EC2 of 0.51 µM. Work on Cc1ccc2c(C)nc(NC(=N)NCCCN3CCCC3)nc2c1 yielded an EC2 of 1 µM. CN(C)CCCNC(=N)Nc1nc(-c2ccoc2)c2occc2n1 showed an EC2 of 2 µM. In the case of Cc1nc(NC(=N)NCC2(CN(C)C)CCCC2)nc2cc(F)ccc12, the EC2 was 16 µM. Work on CNC(=N)Nc1nc(C)c2ccc(C)cc2n1 yielded an EC2 of 7.7 µM. Cc1nc(NC(=N)NCCCN(C)[C@@H](C)c2ccccc2)nc2ccccc12 was tested, and the EC2 was 2.2 µM. Work on N=C(NCCCN1CCCC1)Nc1nc2c(c(-c3ccoc3)n1)CCC2 yielded an EC2 of 0.44 µM. With Cc1nc(NC(=N)NCCCN2CCC3(CCC3)C2)nc2cc(F)ccc12 the EC2 was 2.3 µM. Work on Cc1cccc2nc(NC(=N)N[C@@H]3CCNC3)nc(C)c12 yielded an EC2 of 1.3 µM. In the case of Cc1nc(NC(=N)NCCCN2CCCC2)nc(-c2ccoc2)c1F, the EC2 was 1.6 µM. Cc1nc(NC(=N)NCCCN2CCCC2)nc(-c2cccs2)c1C gave an EC2 of 0.42 µM. For Cc1cccc2nc(NC(=N)N[C@H]3CCNC3)nc(C)c12, the EC2 was 2.2 µM. Work on CCc1cc(C)nc(NC(=N)NCCCN(C)C)n1 yielded an EC2 of 17 µM. With COc1cccc(NC(=N)Nc2nc(C)c3ccccc3n2)c1 the EC2 was 21 µM. Work on Cc1nc(NC(=N)NCCCN2CCCC2)nc(-c2ccoc2)c1Br yielded an EC2 of 0.96 µM. CN(C)CCCNC(=N)Nc1ncc2ccccc2n1 was tested, and the EC2 was 7.5 µM. Compound Cc1nc(NC(=N)NCCN(C)C)nc2cc(F)ccc12 has an EC2 of 3.9 µM. Compound Cc1nc(NC(=N)NC2CCCC(N(C)C)C2)nc2cc(F)ccc12 (stereo not given) has an EC2 of 5.5 µM. With CN(C)CCCNC(=N)Nc1nc2c(c(-c3ccoc3)n1)COC2 the EC2 was 2.4 µM. Work on Cc1nc(NC(=N)NCCCN(C)CC2CCC2)nc2cc(F)ccc12 yielded an EC2 of 1.1 µM. With CN1CCC(NC(=N)Nc2nc3c(c(-c4ccoc4)n2)CCC3)CC1 the EC2 was 0.22 µM. Cc1nc(N=C(N)N)nc2cc(Cl)ccc12 showed an EC2 of 6.3 µM. For Cc1nc(NC(=N)NCCCCCCN(C)C)nc2cc(F)ccc12, the EC2 was 17 µM. Cc1nc(NC(=N)NCCCCCN(C)C)nc2cc(F)ccc12 was tested, and the EC2 was 6.6 µM. For Cc1nc(NC(=N)NCCO)nc2cc(F)ccc12, the EC2 was 26 µM. In the case of CN(C)CCCNC(=N)Nc1nc(-c2ccoc2)c2ccsc2n1, the EC2 was 1.3 µM. Work on Cc1nc(NC(=N)NCCCCN(C)C)nc2cc(F)ccc12 yielded an EC2 of 2.2 µM. Compound Cc1nc(NC(=N)NCCCN2CCCC2)nc(-c2ccco2)c1C has an EC2 of 0.56 µM. For Cc1nc(NC(=N)NCCCN2CCCC2)nc2c(C)cccc12, the EC2 was 0.55 µM. Cc1nc(NC(=N)NCCCN(C)C)nc2cc(Cl)ccc12 showed an EC2 of 0.85 µM. Cc1cc(-c2ccccc2)nc(NC(=N)NCCCN(C)C)n1 showed an EC2 of 7.3 µM. With CN[C@@H]1[C@@H](O)[C@@H](O[C@@H]2[C@@H](O)[C@H](O[C@H]3O[C@H]([C@H](C)O)[C@@H](O)[C@H](O)[C@H]3N)[C@@H](N)C[C@H]2N)OC[C@]1(C)O the EC2 was 8.5 µM. For Cc1ccc2c(C)nc(NC(=N)NCCCN(C)C)nc2c1, the EC2 was 1.1 µM. For Cc1nc(NC(=N)N)nc2ccccc12, the EC2 was 20 µM. With N=C(NCCCN1CCC1)Nc1nc2c(c(-c3ccoc3)n1)CCC2 the EC2 was 0.44 µM. COCCNC(=N)Nc1nc(C)c2ccc(C)cc2n1 gave an EC2 of 12 µM. With Cc1nc(NC(=N)NCCCN)nc2cc(F)ccc12 the EC2 was 9.8 µM. Work on CN(C)CCCNC(=N)Nc1nc(-c2ccoc2)c2sccc2n1 yielded an EC2 of 0.7 µM. With Cc1nc(NC(=N)NCCCN2CCCC2)nc(-c2ccoc2)c1C the EC2 was 1.2 µM. In the case of Cc1nc(NC(=N)NCCCN2CCCC2)nc2cc(F)ccc12, the EC2 was 1.5 µM. Cc1nc(NC(=N)NCCCN(C)C)nc2cc(F)ccc12 showed an EC2 of 1.1 µM. In the case of Cc1nc(NC(=N)NCCCN2CCCC2)nc2ccccc12, the EC2 was 2.1 µM. In the case of CN(C)CCCNC(=N)Nc1nc2c(c(-c3ccoc3)n1)CCCCC2, the EC2 was 3.5 µM. For CNCCCNC(=N)Nc1nc(C)c2ccc(F)cc2n1, the EC2 was 2.5 µM. In the case of Cc1nc(NC(=N)NCCCN2CCOCC2)nc2cc(F)ccc12, the EC2 was 4.7 µM. For Cc1cccc2nc(NC(=N)N[C@H]3CCN(C)C3)nc(C)c12, the EC2 was 1 µM. Cc1nc(NC(=N)NCCCN2CCCC2)nc(-c2ccoc2)c1C(F)(F)F gave an EC2 of 15 µM. Cc1ccc2c(C)nc(NC(=N)NCCOCCO)nc2c1 was tested, and the EC2 was 48 µM. Cc1nc(NC(=N)NCCCN(C)C)nc2cc(F)cc(F)c12 was tested, and the EC2 was 2.9 µM. Compound CN(C)CCCNC(=N)Nc1nc2c(c(-c3ccoc3)n1)CCC2 has an EC2 of 0.44 µM. In the case of Cc1nc(NC(=N)NCCCN2CCCC2)nc(-c2ccsc2)c1C, the EC2 was 1.4 µM. With CN(C)CCCNC(=N)Nc1nc(-c2ccccc2)c2ccccc2n1 the EC2 was 7.5 µM. In the case of Cc1ccc2c(C)nc(NC(=N)N)nc2c1, the EC2 was 10 µM. For Cc1nc(NC(=N)NCCCc2ccccc2)nc2ccccc12, the EC2 was 47 µM. For CN1CCC(NC(=N)Nc2nc3c(c(-c4ccco4)n2)CCC3)CC1, the EC2 was 0.12 µM. With Cc1nc(N=C(N)N)nc2cc(F)ccc12 the EC2 was 13 µM. With Cc1cccc2nc(NC(=N)N[C@@H]3CCN(C)C3)nc(C)c12 the EC2 was 0.34 µM. In the case of CCc1c(C)nc(NC(=N)NCCCN2CCCC2)nc1-c1ccoc1, the EC2 was 3.2 µM. Compound Cc1cc(-c2ccoc2)nc(NC(=N)NCCCN(C)C)n1 has an EC2 of 3 µM. Work on CCNC(=N)Nc1nc(C)c2ccc(Cl)cc2n1 yielded an EC2 of 21 µM. CN(C)CCCNC(=N)Nc1nc2c(c(-c3ccoc3)n1)CCCCCC2 gave an EC2 of 2.7 µM. With Cc1ccc2nc(NC(=N)NCCCN3CCCC3)nc(C)c2c1 the EC2 was 2.3 µM. With Cc1nc(NC(=N)N[C@H](C)CCN(C)C)nc2ccccc12 the EC2 was 2.5 µM. Cc1nc(NC(=N)NCCCN2CCCC2)nc(-c2ccoc2)c1Cl gave an EC2 of 0.77 µM. In the case of Cc1nc(NC(=N)NCCCN(C)C)nc2ccccc12, the EC2 was 1.7 µM. N=C(NCCCN1CCCCC1)Nc1nc2c(c(-c3ccoc3)n1)CCC2 showed an EC2 of 0.4 µM. Compound Cc1nc(NC(=N)NCCCN(C)[C@H](C)c2ccccc2)nc2ccccc12 has an EC2 of 1.8 µM. Compound Cc1nc(NC(=N)NCCCN(C)C)nc2cccc(F)c12 has an EC2 of 0.92 µM. Cc1cccc2nc(NC(=N)NC3CCNCC3)nc(C)c12 showed an EC2 of 1.1 µM. Cc1nc(NC(=N)NCCCN2CCN3CCCCC3C2)nc2cc(F)ccc12 (stereo not given) gave an EC2 of 3.5 µM. Cc1cccc2nc(NC(=N)NCCCN3CCCC3)nc(C)c12 showed an EC2 of 0.84 µM. Cc1nc(NC(=N)NCCCN2CCCCC2)nc2cc(F)ccc12 showed an EC2 of 0.68 µM. CN(C)CCCNC(=N)Nc1nc2c(c(-c3ccoc3)n1)CCCC2 was tested, and the EC2 was 1.1 µM. Cc1nc(NC(=N)NCCCN(C)C)nc(-c2ccoc2)c1C showed an EC2 of 1.3 µM.

These compounds were tested against Dystrophin (Mus musculus) (UniProt P11531) (assay: Induction of read through activity at dystrophin in mouse H2K mdx cells assessed as increase in production of full length dystrophin protein at 0.01 to 100 uM by MSD assay). Settings: filed as activator, dose 0.01-100 µM.
Type: cell-based
Cc1nc(NC(=N)NCCCN2CCCC2)nc(-c2ccoc2)c1C was tested, and the Activity was “Active”.

These compounds were tested against Dystrophin (Mus musculus) (UniProt P11531) (assay: Induction of read through activity at dystrophin in mouse H2K mdx cells assessed as increase in production of full length dystrophin protein at 0.6 to 20 uM by western blot assay). Settings: filed as activator, dose 0.6-20 µM.
Type: cell-based
With Cc1nc(NC(=N)NCCCN2CCCC2)nc(-c2ccoc2)c1C the Activity was “Active”.

These compounds were tested against Dystrophin (Mus musculus) (UniProt P11531) (assay: Induction of read through activity at dystrophin in mouse H2K mdx cells assessed as increase in production of full length dystrophin protein at 0.07 to 2 uM by western blot assay). Settings: filed as activator, dose 0.07-2 µM.
Type: cell-based
N=C(NCCCN1CCCCC1)Nc1nc2c(c(-c3ccoc3)n1)CCC2 was tested, and the Activity was “Active”.

The compounds below were run against Dystrophin (Mus musculus) (UniProt P11531) (assay: Induction of read through activity at dystrophin in mouse H2K mdx cells assessed as increase in production of full length dystrophin protein by measuring fold change at 0.01 to 100 uM by MSD assay). Settings: filed as activator, dose 0.01-100 µM.
Type: cell-based
N=C(NCCCN1CCCCC1)Nc1nc2c(c(-c3ccoc3)n1)CCC2 was tested, and the fold change (FC) was 3.
